Reference: publication PMC10051798, “Thiosemicarbazide Derivatives Targeting Human TopoIIα and IDO-1 as Small-Molecule Drug Candidates for Breast Cancer Treatment” (International Journal of Molecular Sciences, 2023)
≈ marks a conversion by molar mass, not a printed value.

Tests used:
MCF-7 cells [1] = test: Cell cycle analysis (PI flow cytometry), MCF-7; assay type: cell-based, human; details: 24 h
Protocol: Cell cycle analyses of MCF-7 and MDA-MB-231 cells treated with compounds 1–3 and etoposide for 24 h were performed using a FACSCanto II flow cytometer (BD Bioscences Systems, San Diego, CA, USA). After incubation, breast cancer cells were trypsinized and fixed with cold ethanol (70%) and stored overnight at −20 °C. After removing ethanol, the cells were washed three times with PBS, treated with 50 μg/mL of DNase-free RNase A Solution (Promega, Madison, WI, USA) and stained with 100 μg/mL of PI. The results of measurements were analyzed using FCS Express 7 software (De Novo Software, Pasadena, CA, USA).

[2] = target: T1, MDR1 (p-glycoprotein) in MCF-7 cells (Homo sapiens, UniProt P08183); test: MDR transporter activity assay, MDR1 in MCF-7; assay type: cell-based; details: MCF-7, 10 µg/mL, 24 h
T1 construct: endogenous in cells; host or cells: MCF-7 and MDA-MB-231 cells
Protocol: (§1) An MDR Assay kit (Abcam, Cambridge, UK) was used following the manufacturer’s instructions. MCF-7 and MDA-MB-231 cells were incubated with compounds 1–3 (10 μg/mL and 20 μg/mL). After 24 h of incubation, the test cells were washed twice with 5 mL of PBS by centrifugation at 1200 rpm for 10 min. The supernatants were discarded and the cells were counted using a Scepter 3.0 handheld automated cell counter (Milipore, Burlington, MA, USA). Then, each of the tested samples was divided into three parts and analyzed. Tomeasure the activity of MDR1, MRP1 and BCRP (tubes 1–12), 5 μL of verapamil (MDR1 inhibitor) was added into tubes 1–3, 5 μL of MK-571 (MRP1 inhibitor) was added into tubes 4–6, 5 μL of noviobiocin (BCRP inhibitor) was added into tubes 7–9 and 125 μL DMEM with 1 μL of DMSO was added into tubes 10–12. Then, the samples were incubated at 37 °C for five minutes. After this time, 125 μL of Efflux Green Detection Reagent was added into tubes 1–12 and the samples were incubated for 30 min at 37 °C. After 25 min of incubation, 5 μL of PI was added to each tube. Thereafter, the samples were centrifuged for 10 min at 1200 rpm. The supernatants were discarded and the cells were resuspended in 500 μL of PBS and run on the flow cytometer immediately. Measurements were conducted on a BD FACSCanto II flow cytometer using FACSDiva software (version 6.1.3, BD Biosciences, San Diego, CA, USA). […]

MRP1/2 in MCF-7 cells = test: MDR transporter activity assay, MRP in MCF-7; assay type: cell-based, human; details: MCF-7, 10 µg/mL, 24 h
Protocol: as §1

BCRP in MCF-7 cells = target: T2, BCRP in MCF-7 cells (Homo sapiens, UniProt Q9UNQ0); test: MDR transporter activity assay, BCRP in MCF-7; assay type: cell-based; details: MCF-7, 10 µg/mL, 24 h
T2 construct: endogenous in cells; host or cells: MCF-7 and MDA-MB-231 cells
T2 sequence (Q9UNQ0 1-655): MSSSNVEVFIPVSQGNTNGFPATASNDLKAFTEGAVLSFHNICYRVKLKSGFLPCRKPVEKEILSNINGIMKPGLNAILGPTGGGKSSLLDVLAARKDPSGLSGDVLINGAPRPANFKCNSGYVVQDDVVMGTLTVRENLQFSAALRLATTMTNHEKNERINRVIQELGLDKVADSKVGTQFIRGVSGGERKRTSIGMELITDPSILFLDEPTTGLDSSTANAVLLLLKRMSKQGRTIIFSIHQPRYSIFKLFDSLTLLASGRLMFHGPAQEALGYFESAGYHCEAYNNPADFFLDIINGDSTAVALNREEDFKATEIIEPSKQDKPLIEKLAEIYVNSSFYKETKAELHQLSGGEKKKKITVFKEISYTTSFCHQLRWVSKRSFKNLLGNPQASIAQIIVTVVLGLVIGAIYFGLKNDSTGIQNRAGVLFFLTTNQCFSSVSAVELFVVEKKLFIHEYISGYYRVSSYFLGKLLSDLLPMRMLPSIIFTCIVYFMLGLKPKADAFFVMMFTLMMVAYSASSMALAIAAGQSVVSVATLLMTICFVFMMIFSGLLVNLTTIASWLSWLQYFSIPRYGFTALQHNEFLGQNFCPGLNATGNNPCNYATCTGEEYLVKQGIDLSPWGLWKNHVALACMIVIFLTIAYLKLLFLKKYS
Protocol: as §1

[3] = target: T3, MDR1 (p-glycoprotein) in MDA-MB-231 cells (Homo sapiens, UniProt P08183); test: MDR transporter activity assay, MDR1 in MDA-MB-231; assay type: cell-based; details: 24 h
T3 construct: endogenous in cells; host or cells: MCF-7 and MDA-MB-231 cells
Protocol: (§2) An MDR Assay kit (Abcam, Cambridge, UK) was used following the manufacturer’s instructions. MCF-7 and MDA-MB-231 cells were incubated with compounds 1–3 (10 μg/mL and 20 μg/mL). After 24 h of incubation, the test cells were washed twice with 5 mL of PBS by centrifugation at 1200 rpm for 10 min. The supernatants were discarded and the cells were counted using a Scepter 3.0 handheld automated cell counter (Milipore, Burlington, MA, USA). Then, each of the tested samples was divided into three parts and analyzed. Tomeasure the activity of MDR1, MRP1 and BCRP (tubes 1–12), 5 μL of verapamil (MDR1 inhibitor) was added into tubes 1–3, 5 μL of MK-571 (MRP1 inhibitor) was added into tubes 4–6, 5 μL of noviobiocin (BCRP inhibitor) was added into tubes 7–9 and 125 μL DMEM with 1 μL of DMSO was added into tubes 10–12. Then, the samples were incubated at 37 °C for five minutes. After this time, 125 μL of Efflux Green Detection Reagent was added into tubes 1–12 and the samples were incubated for 30 min at 37 °C. After 25 min of incubation, 5 μL of PI was added to each tube. Thereafter, the samples were centrifuged for 10 min at 1200 rpm. The supernatants were discarded and the cells were resuspended in 500 μL of PBS and run on the flow cytometer immediately. Measurements were conducted on a BD FACSCanto II flow cytometer using FACSDiva software (version 6.1.3, BD Biosciences, San Diego, CA, USA). […] The calculations followed these formulas:MAFMDR1= 100 × (FMDR1 − F0)/FMDR1 MAFMRP= 100 × (FMRP − F0)/FMRP MAFBCRP= 100 × (FBCRP − F0)/FBCRP
(§3) • FMDR—MFI with MDR1 inhibitor (verapamil) • FMRP—MFI with MRP inhibitor (MK-571) • FBCRP—MFI with BCRP inhibitor (novobiocin) • F0—MFI without inhibitor
(§4) The theoretical range of the MAF values is between 0 and 100.

[4] = system: MRP1/2 in MDA-MB-231 cells; test: MDR transporter activity assay, MRP in MDA-MB-231; assay type: cell-based, human; details: 24 h
Protocol: as §2, §3, §4

BCRP in MDA-MB-231 cells = target: T4, BCRP in MDA-MB-231 cells (Homo sapiens, UniProt Q9UNQ0); test: MDR transporter activity assay, BCRP in MDA-MB-231; assay type: cell-based; details: 24 h
T4 construct: endogenous in cells; host or cells: MCF-7 and MDA-MB-231 cells
T4 sequence (Q9UNQ0 1-655): T2 sequence (Q9UNQ0 1-655)
Protocol: as §2, §3, §4

MCF-7 cells [5] = system: MCF-7 cells; design: method as in PMID 36345785; details: MTT; cited from earlier work
MDA-MB-231 cells = system: MDA-MB-231 cells; design: method as in PMID 36345785; details: MTT; cited from earlier work

T3 sequence (P08183 whole entry): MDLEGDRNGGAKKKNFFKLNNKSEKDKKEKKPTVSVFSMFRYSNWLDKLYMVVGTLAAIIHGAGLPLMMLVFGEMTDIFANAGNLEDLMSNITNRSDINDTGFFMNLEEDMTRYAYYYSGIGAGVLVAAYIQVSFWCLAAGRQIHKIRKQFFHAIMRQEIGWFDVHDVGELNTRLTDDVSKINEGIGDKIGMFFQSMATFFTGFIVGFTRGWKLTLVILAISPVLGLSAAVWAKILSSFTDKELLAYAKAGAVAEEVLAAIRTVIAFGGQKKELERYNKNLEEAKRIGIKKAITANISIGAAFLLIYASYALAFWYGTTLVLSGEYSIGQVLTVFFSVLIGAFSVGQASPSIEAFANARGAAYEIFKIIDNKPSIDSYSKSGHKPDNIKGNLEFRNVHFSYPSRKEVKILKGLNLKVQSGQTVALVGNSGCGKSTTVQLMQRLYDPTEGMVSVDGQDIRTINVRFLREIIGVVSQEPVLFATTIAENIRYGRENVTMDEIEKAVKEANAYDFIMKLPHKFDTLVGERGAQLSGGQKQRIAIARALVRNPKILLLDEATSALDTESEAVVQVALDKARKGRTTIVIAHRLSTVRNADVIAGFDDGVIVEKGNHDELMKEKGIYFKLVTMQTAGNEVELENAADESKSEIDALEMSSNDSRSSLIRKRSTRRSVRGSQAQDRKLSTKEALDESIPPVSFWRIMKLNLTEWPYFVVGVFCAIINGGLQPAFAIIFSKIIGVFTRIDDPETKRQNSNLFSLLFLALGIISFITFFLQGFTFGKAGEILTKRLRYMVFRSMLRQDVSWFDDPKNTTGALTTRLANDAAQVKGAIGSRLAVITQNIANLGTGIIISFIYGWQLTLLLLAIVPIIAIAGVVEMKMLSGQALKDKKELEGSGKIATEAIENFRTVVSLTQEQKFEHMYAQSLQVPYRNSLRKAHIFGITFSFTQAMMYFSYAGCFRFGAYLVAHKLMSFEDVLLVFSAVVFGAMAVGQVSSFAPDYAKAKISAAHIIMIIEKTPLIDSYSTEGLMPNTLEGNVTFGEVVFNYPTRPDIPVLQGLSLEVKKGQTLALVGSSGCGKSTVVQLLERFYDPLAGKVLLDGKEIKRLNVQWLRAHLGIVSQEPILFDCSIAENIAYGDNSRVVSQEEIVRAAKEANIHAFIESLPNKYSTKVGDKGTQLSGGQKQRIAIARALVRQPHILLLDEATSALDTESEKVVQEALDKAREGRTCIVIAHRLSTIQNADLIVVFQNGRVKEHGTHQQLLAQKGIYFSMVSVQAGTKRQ
T1 sequence (P08183 whole entry): as above

Row | SMILES | cells in G2/M phase (MCF-7 cells [1]; MCF-7, 20 µg/mL) | cells in S phase (MCF-7 cells [1]; MCF-7, 20 µg/mL) | MAF MDR1 (multidrug resistance activity factor) [2] | MAF MRP (MRP1/2 in MCF-7 cells) | MAF BCRP (BCRP in MCF-7 cells) | MAF MDR1 ([3]; MDA-MB-231, 10 µg/mL) | MAF MDR1 ([3]; MDA-MB-231, 20 µg/mL) | MAF MRP ([4]; MDA-MB-231, 10 µg/mL) | MAF MRP ([4]; MDA-MB-231, 20 µg/mL) | MAF BCRP (BCRP in MDA-MB-231 cells; MDA-MB-231, 10 µg/mL) | MAF BCRP (BCRP in MDA-MB-231 cells; MDA-MB-231, 20 µg/mL) | IC50 (MCF-7 cells [5]) | IC50 MCF-7 (MCF-7 cells [5]) | IC50 (MDA-MB-231 cells) | IC50 MDA-MB-231 (MDA-MB-231 cells) | cells in G2/M phase (MCF-7 cells [1]; MCF-7, 10 µg/mL)
1 | O=C(Cc1cccc2ccccc12)NNC(=S)Nc1ccc(/N=N/c2ccccc2)cc1 [Compound 2] | 32.2% | 40.7% | 9.1 | 9.9 | 15.4 | 13.3 | 11.1 | 7.0 | 1.8 | 4.9 | 1.4 | 20.9 ± 0.59 µM | 9.18 ± 0.26 µg/mL (≈ 20.9 µM) | 17.4 ± 0.93 µM | 7.64 ± 0.41 µg/mL (≈ 17.4 µM) | 
2 | O=C(NNC(=S)Nc1ccc(/N=N/c2ccccc2)cc1)c1ccccc1[N+](=O)[O-] [Compound 3] |  | 49.1% | 5.7 | 5.3 | 7.0 |  | < 20 |  | < 20 |  | < 20 | 18.2 ± 1.36 µM | 7.67 ± 0.57 µg/mL (≈ 18.2 µM) | 24.9 ± 1.74 µM | 10.47 ± 0.73 µg/mL (≈ 24.9 µM) | 35.3%
